In experiment [1] the test system is keratinocyte cell line. As to conditions: concentration-dependent; read-out: IC50 for decreasing keratinocyte cell line proliferation; cited from earlier work.
Experiment [2] deals with T cells in psoriasis lesions. The settings on record: psoriasis patients, topical treatment, skin biopsies; cited from earlier work.
The target of experiment [3] is human JAK1 (a.a. 837-1142) (Homo sapiens, UniProt P23458). Nature of the experiment: In vitro JAK kinase assay (HTRF), JAK1. The format is biochemical. The settings on record: 1 mM ATP. A general note: TR-FRET usually uses a lanthanide donor and a delayed reading to cut background.
For experiment [4], the system named is human JAK1 (a.a. 837-1142). Kind of experiment: In vitro JAK kinase assay (HTRF), JAK1. The format is biochemical. As to conditions: JAK2/JAK1 IC50 ratio, 1 mM ATP.

As to `C=C1/C(=C\C=C2/CCC[C@]3(C)[C@@H]([C@H](C)CC[C@@H](O)C(C)C)CC[C@@H]23)C[C@@H](O)C[C@@H]1O` [tacalcitol], in experiment [1], the IC50 was 10 to 100 nM. As to `C=C1/C(=C\C=C2/CCC[C@]3(C)[C@@H]([C@H](C)/C=C/[C@@H](O)C4CC4)CC[C@@H]23)C[C@@H](O)C[C@@H]1O` [calcipotriol], in experiment [2], the “CD8(+) IL-17(+) T cells” value is recorded as “significant decrease” and the “frequency of IL-22(+) or IFN-γ(+) cells in psoriasis lesions” value was “no changes”. Also, in experiment [1], the IC50 was 10 to 100 nM. As to `C=C1/C(=C\C=C2/CCC[C@]3(C)[C@@H]([C@H](C)OCCC(C)(C)O)CC[C@@H]23)C[C@@H](O)C[C@@H]1O` [maxacalcitol], the IC50 in experiment [1] was 10 to 100 nM. Consider `C[C@H](NC(=O)c1cc(F)c(N2CC(CC#N)(n3cc(-c4ncnc5[nH]ccc45)cn3)C2)cc1F)C(F)(F)F` [Compound 16, 4-{3-(cyanomethyl)-3-[4-(7H-pyrrolo[2,3-d]pyrimidin-4-yl)-1H-pyrazol-1-yl]azetidin-1-yl]-2,5-difluoro-N-[(1S)-2,2,2-trifluoro-1-methylethyl]benzamide], for which, in experiment [3], the IC50 is less than 10 nM. Also, in experiment [4], the JAK2/JAK1 is listed as more than 10. Consider `N#CCC1(n2cc(-c3ncnc4[nH]ccc34)cn2)CN(C2CCN(C(=O)c3ccnc(C(F)(F)F)n3)CC2)C1` [Compound 3, [3-[4-(7H-pyrrolo[2,3-d]pyrimidin-4-yl)-1H-pyrazol-1-yl]-1-(1-{[2-(trifluoromethyl)pyrimidin-4-yl]carbonyl}piperidin-4-yl)azetidin-3-yl]acetonitrile], for which the IC50 in experiment [3] is less than 10 nM. For the same compound, the JAK2/JAK1 in experiment [4] was more than 10. The corresponding values for `C[C@@H](O)CNCc1cc(OC2CCN([C@H]3C[C@](CC#N)(n4cc(-c5ncnc6[nH]ccc56)cn4)C3)CC2)nc(C(F)(F)F)c1` [Compound 24, {trans-3-(4-{[4-({[(2R)-2-hydroxypropyl]amino}methyl)-6-(trifluoromethyl)pyridin-2-yl]oxy}piperidin-1-yl)-1-[4-(7H-pyrrolo[2,3-d]pyrimidin-4-yl)-1H-pyrazol-1-yl]cyclobutyl]acetonitrile] are less than 10 nM and more than 10. In turn, `N#CCC(C1CCN(c2nc3cccnc3o2)C1)n1cc(-c2ncnc3[nH]ccc23)cn1` (centres unmarked) [Compound 7, 3-(1-[1,3]oxazolo[5,4-b]pyridin-2-ylpyrrolidin-3-yl)-3-[4-(7H-pyrrolo[2,3-d]pyrimidin-4-yl)-1H-pyrazol-1-yl]propanenitrile] had an IC50 in experiment [3] of less than 10 nM. Moreover, in experiment [4], the JAK2/JAK1 was more than 10. The corresponding values for `N#CCC1(n2cc(-c3ncnc4[nH]ccc34)cn2)CN([C@H]2CC[C@@H](Oc3cc(CN4CC[C@@H](O)C4)cc(C(F)(F)F)n3)CC2)C1` [Compound 21, {1-(cis-4-{[4-{[(3R)-3-hydroxypyrrolidin-1-yl]methyl}-6-(trifluoromethyl)pyridin-2-yl]oxy}cyclohexyl)-3-[4-(7H-pyrrolo[2,3-d]pyrimidin-4-yl)-1H-pyrazol-1-yl]azetidin-3-yl}acetonitrile] are less than 10 nM and more than 10. In the case of `N#CC[C@]1(n2cc(-c3ncnc4[nH]ccc34)cn2)C[C@H](N2CCC(Oc3cc(CN4CCC[C@H]4CO)cc(C(F)(F)F)n3)CC2)C1` [Compound 12, {trans-3-(4-{[4-{[(2S)-2-(hydroxymethyl)pyrrolidin-1-yl]methyl}-6-(trifluoromethyl)pyridin-2-yl]oxy}piperidin-1-yl)-1-[4-(7H-pyrrolo[2,3-d]pyrimidin-4-yl)-1H-pyrazol-1-yl]cyclobutyl}acetonitrile], the IC50 in experiment [3] is less than 10 nM. The JAK2/JAK1 in experiment [4] is recorded as more than 10.

Source of the values: patent US20250049817A1, “JAK INHIBITOR WITH A VITAMIN D ANALOG FOR TREATMENT OF SKIN DISEASES” (INCYTE CORPORATION, priority 2020, published 2025).
